Test results taken from patent US4482568A, “Inhibition of alcohol metabolism by tetramethylene sulfoxides” (University of Iowa Research Foundation, priority 1983, dated 1984).
Read-outs that look alike come from different tables or passages of the source.

What was measured:
[1] = system: ethanol metabolism; assay: Blood alcohol concentration in rats after ethanol and inhibitor (FIG. 1); type: in vivo; details: 19.6 mmol/kg ethanol, 1 mmol/kg inhibitor
Procedure: In order to compare dimethyl sulfoxide and its potential as an inhibitor with the compounds of this invention, rats were given dosages of 19.6 millimoles per kilogram of body weight of alcohol and/or injections of one millimole per kilogram of body weight of the inhibitors, either dimethyl sulfoxide, tetramethylene sulfoxide, 3-methyltetramethylene sulfoxide, or 3-butyltetramethylene sulfoxide. After injection, the alcohol concentration in the blood was measured. The drawing reports the alcohol concentration. The line designated by the numeral 12 represents ethanol without any inhibitor. The line designated by 11 represents ethanol with dimethyl sulfoxide. The line represented by the numeral 13 represents ethanol with tetramethylene sulfoxide.

[2] = biological target: T1, horse liver alcohol dehydrogenase (Equus caballus, UniProt P00327); assay: Inhibition of horse liver alcohol dehydrogenase in vitro (Kii against varied ethanol); type: biochemical
T1 construct: Crystallized horse liver alcohol dehydrogenase; from tissue; host or cells: horse liver
Procedure: (§1) ^a The Kii values (intercept) inhibition constants in micromolar
(§2) units as determined against varied concentrations of ethanol as substrate
(§3) Purified or partially purified enzyme was tested under approximately
(§4) physiological conditions, pH 7.3 and 37° C., except that the
(§5) crystallized horse enzyme was tested at pH 7 and 25° C.
(§6) Crystallized horse liver alcohol dehydrogenase was freed from endogenous ethanol by filtration though a column of Sephadex G-50. Inhibition studies were carried out with varied concentrations of ethanol (0.4-2 mM) at 1 mM NAD+ in 46 mM sodium phosphate buffer, pH 7, at 25° C. In each experiment, at least three different concentrations of inhibitor were tested and 32 initial velocities were determined (as in FIGS. 2A and 3A of the Journal article). Data for noncompetitive inhibition were fitted to the equation v=VS/[Km (1+[…])+S(1+I/Kii)], whereas the equation for uncompetitive inhibition has no Kis term, and competitive inhibition has no Kii term. The equation giving the lowest standard errors and residual variance was concluded to give the best fit. Rat liver alcohol dehydrogenase was partially purified, and inhibition studies were performed as with the horse liver enzyme, except that the buffer was 83 mM potassium phosphate, pH 7.3, and 40 mM KCl, total ionic strength=0.25, and the temperature was 37.8° C. The concentration of NAD was 0.5 mM. These conditions are thought to resemble those found in vivo. The concentrations of ethanol were 0.4, 0.6, 1, and 2 mM, and the inhibitors were varied between 0 and 0.6 mM.

[3] = biological target: Liver Alcohol Dehydrogenase (Monkey); assay: Inhibition of monkey liver alcohol dehydrogenase in vitro (Kii against varied ethanol); type: biochemical; details: purified or partially purified enzyme, pH 7.3, 37° C., ethanol varied as substrate
Procedure: as §1, §2, §3, §4, §5

[4] = biological target: T2, Rat liver alcohol dehydrogenase (Rattus norvegicus, UniProt P06757); assay: Inhibition of rat liver alcohol dehydrogenase in vitro (Kii against varied ethanol); type: biochemical
T2 construct: Rat liver alcohol dehydrogenase was partially purified; from tissue; host or cells: rat liver
Procedure: as §1, §2, §3, §4, §5, §6

[5] = system: ethanol metabolism; assay: Ethanol (elimination rate) metabolism in rats; type: in vivo, male Sprague-Dawley rats; details: for Ethanol (Elimination Rate) Metabolism In Rats, % Inhibition: 19.6 mmoles of ethanol/kg i.p. and 1 mmole/kg inhibitor, maximum obtainable about 85%
Procedure: ^b The Kii (intercept inhibition constant, micromoles/kg) was
determined with varied concentrations of inhibitor and ethanol by
determination of blood alohol concentrations. For a survey of inhibitory
potency, rats were given 19.6 mmoles of ethanol/kg body wt., i.p., and 1.
mmole of the inhibitor, and the percentage inhibition of ethanol
elimination was calculated with reference to an animal given no inhibitor
The maximum "inhibition" that can be obtained is about 85%, since some
ethanol is eliminated by excretion, rather than by oxidation by alcohol
^c The value was estimated from results from rats given 19.6 mmoles o
ethanol/kg and 0.1, 0.4, and 1.0 mmoles/kg of the inhibitor.
The precise experimental details for assembling the data shown in the above table are reported in our Journal of Medicinal Chemistry article, 1983, Vol. 26, No. 6, at page 921. The entire article is incorporated herein by reference. In particular, for the rat studies, inhibition of ethanol metabolism by the active compounds of this invention were studied in vitro in liver alcohol dehydrogenase from horses, monkeys and rats. The in vivo study of ethanol metabolism in rats, and in particular its inhibition was studied with male Sprague-Dawley rats, which were given intraperitoneal injections of active compounds (0.1 molar) in saline at doses of 0.0, 0.25 and 0.5 or 1.0 mmole/kg of body weight. Ten minutes later, ethanol was injected intraperitoneally at a dose of 19.6 mmoles/kg of body weight. Blood samples were taken at intervals, timed from the ethanol injection, and analyzed by gas chromatography.

[6] = system: isolated liver alcohol dehydrogenases; assay: Inhibition of ethanol oxidation by isolated liver alcohol dehydrogenases (general statements); type: biochemical
Procedure: as §6

[7] = system: alcohol dehydrogenases in the liver; details: background, cited from earlier work
[8] = system: ethanol induced loss of righting reflex; details: mice; Sharkawi 1979; cited from earlier work
[9] = crystallized horse enzyme, pH 7, 25° C., ethanol varied as substrate, read-out: Liver Alcohol Dehydrogenase, In Vitro, Kii, Horse
[10] = partially purified enzyme, pH 7.3, 37° C., ethanol varied as substrate, read-out: Liver Alcohol Dehydrogenase, In Vitro, Kii, Rat

T2 sequence (P06757 2-376 limits assumed): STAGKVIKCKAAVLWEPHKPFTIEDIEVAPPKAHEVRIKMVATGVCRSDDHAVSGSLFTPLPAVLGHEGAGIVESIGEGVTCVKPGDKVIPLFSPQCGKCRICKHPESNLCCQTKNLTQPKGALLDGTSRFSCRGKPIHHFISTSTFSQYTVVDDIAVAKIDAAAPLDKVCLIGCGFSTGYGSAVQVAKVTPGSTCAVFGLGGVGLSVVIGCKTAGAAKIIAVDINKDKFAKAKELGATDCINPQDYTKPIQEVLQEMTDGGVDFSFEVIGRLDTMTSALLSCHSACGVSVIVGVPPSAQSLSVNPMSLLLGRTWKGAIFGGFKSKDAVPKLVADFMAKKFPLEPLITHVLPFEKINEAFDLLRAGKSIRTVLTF
T1 sequence (P00327 2-375 limits assumed): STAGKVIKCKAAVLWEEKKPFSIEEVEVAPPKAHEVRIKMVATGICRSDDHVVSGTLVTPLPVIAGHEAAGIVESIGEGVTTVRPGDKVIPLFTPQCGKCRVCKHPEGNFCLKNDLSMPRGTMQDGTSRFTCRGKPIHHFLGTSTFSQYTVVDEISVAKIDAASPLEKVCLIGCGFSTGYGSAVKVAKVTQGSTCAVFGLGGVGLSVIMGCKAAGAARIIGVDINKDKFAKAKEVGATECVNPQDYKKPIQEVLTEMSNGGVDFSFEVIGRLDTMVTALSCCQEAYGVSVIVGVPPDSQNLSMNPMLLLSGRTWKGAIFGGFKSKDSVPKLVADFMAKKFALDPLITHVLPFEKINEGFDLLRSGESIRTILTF

Row | Compound | effectiveness as inhibitor of alcohol metabolism (blood alcohol concentration) [1] | Ki [2, 9] [µM] | Ki [3] [µM] | Ki [4, 10] [µM] | Ethanol (Elimination Rate) Metabolism In Rats, % Inhibition [5] [%] | also measured
1 | CCCCC1CC[S+]([O-])C1 (stereo not shown) [3-Butyltetramethylene sulfoxide, 3-butylthiolane-1-oxide] | far superior to even tetramethylene sulfoxide | 0.63 | 2.2 | 1.5 | 76 | 
2 | CC1CC[S+]([O-])C1 (stereo not shown) [3-Methyltetramethylene sulfoxide, 3-Methylthiolane-1-oxide] | far superior to even tetramethylene sulfoxide | 7.5 | 450 | 18 | 72 | Ethanol (Elimination Rate) Metabolism In Rats, Kii (estimated) ([5]; estimated from rats given 19.6 mmoles of ethanol/kg and 0.1, 0.4, and 1.0 mmoles/kg of inhibitor): 150 µmol/kg
3 | [O-][S+]1CCCC1 [Tetramethylene Sulfoxide, tetramethylene sulfoxide] | far more effective |  | 1700 |  | 63 | Ki [2]: 19 µM; Ki [4]: 200 µM; inhibition of ethanol metabolism in animals (in words) ([5]; animals/rats): effectively inhibit ethanol metabolism in animals; Ethanol (Elimination Rate) Metabolism In Rats, Kii ([5]; intercept inhibition constant, varied concentrations of inhibitor and ethanol, blood alcohol concentrations, i.p.): 340 µmol/kg; inhibition of ethanol oxidation by isolated liver alcohol dehydrogenases (in words) [6]: exceptionally potent inhibitors
4 | C[S+](C)[O-] [dimethyl sulfoxide, reference compound] | not effective as an inhibitor |  |  |  |  | inhibition constant with horse liver alcohol dehydrogenase ([2]; stated for comparison): four to five; inhibitory effect on alcohol metabolism ([7]; Sharkawi, Toxicology Letters 1979): some slight inhibitory effect; effect on ethanol induced loss of righting reflex [8]: significantly "prolong the ethanol induced loss of righting reflex in mice"
5 | CCO [ethanol] |  |  |  |  |  | type of inhibition [7]: competitive inhibitor; effectiveness as inhibitor ([7]; ethanol as treatment for toxic alcohol ingestion): not a very effective inhibitor
